This note sets out measurements from patent US7598245B2 (Vertex Pharmaceuticals Incorporated, priority 2003, dated 2009).

The Ki is a dissociation constant, usually derived from enzyme kinetics or from competition with a known ligand.

A value given as a limit tells only on which side of the number the result lay.

What all share (assay type): biochemical
One experiment concerns the target GSK-3β (AA 1-420) (Homo sapiens, UniProt P49841). Put plainly: Inhibition of GSK-3, coupled enzyme system. To be noted: 20 μM ATP, 30° C. As for the experimental part: Compounds are screened for their ability to inhibit GSK-3β (AA 1-420) activity using a standard coupled enzyme system [Fox et al. Protein Sci. 1998, 7, 2249]. Reactions are carried out in a solution containing 100 mM HEPES (pH 7.5), 10 mM MgCl2, 25 mM NaCl, 300 μM NADH, 1 mM DTT and 1.5% DMSO. Final substrate concentrations in the assay are 20 μM ATP (Sigma Chemicals, St Louis, Mo.) and 300 μM peptide (American Peptide, Sunnyvale, Calif.). Reactions are carried out at 30° C. and 20 nM GSK-3β. Final concentrations of the components of the coupled enzyme system are 2.5 mM phosphoenolpyruvate, 300 μM NADH, 30 μg/ml pyruvate kinase and 10 μg/ml lactate dehydrogenase.
An assay stock buffer solution is prepared containing all of the reagents listed above with the exception of ATP and the test compound of interest. The assay stock buffer solution (175 μl) is incubated in a 96 well plate with 5 μl of the test compound of interest at final concentrations spanning 0.002 μM to 30 μM at 30° C. for 10 min. Typically, a 12 point titration is conducted by preparing serial dilutions (from 10 mM compound stocks) with DMSO of the test compounds in daughter plates. The reaction is initiated by the addition of 20 μl of ATP (final concentration 20 μM). Rates of reaction are obtained using a Molecular Devices Spectramax plate reader (Sunnyvale, Calif.) over 10 min at 30° C. The Ki values are determined from the rate data as a function of inhibitor concentration.

The next experiment addresses T1, JAK-3 (Homo sapiens, UniProt P52333).
T1 sequence (P52333 1-1124): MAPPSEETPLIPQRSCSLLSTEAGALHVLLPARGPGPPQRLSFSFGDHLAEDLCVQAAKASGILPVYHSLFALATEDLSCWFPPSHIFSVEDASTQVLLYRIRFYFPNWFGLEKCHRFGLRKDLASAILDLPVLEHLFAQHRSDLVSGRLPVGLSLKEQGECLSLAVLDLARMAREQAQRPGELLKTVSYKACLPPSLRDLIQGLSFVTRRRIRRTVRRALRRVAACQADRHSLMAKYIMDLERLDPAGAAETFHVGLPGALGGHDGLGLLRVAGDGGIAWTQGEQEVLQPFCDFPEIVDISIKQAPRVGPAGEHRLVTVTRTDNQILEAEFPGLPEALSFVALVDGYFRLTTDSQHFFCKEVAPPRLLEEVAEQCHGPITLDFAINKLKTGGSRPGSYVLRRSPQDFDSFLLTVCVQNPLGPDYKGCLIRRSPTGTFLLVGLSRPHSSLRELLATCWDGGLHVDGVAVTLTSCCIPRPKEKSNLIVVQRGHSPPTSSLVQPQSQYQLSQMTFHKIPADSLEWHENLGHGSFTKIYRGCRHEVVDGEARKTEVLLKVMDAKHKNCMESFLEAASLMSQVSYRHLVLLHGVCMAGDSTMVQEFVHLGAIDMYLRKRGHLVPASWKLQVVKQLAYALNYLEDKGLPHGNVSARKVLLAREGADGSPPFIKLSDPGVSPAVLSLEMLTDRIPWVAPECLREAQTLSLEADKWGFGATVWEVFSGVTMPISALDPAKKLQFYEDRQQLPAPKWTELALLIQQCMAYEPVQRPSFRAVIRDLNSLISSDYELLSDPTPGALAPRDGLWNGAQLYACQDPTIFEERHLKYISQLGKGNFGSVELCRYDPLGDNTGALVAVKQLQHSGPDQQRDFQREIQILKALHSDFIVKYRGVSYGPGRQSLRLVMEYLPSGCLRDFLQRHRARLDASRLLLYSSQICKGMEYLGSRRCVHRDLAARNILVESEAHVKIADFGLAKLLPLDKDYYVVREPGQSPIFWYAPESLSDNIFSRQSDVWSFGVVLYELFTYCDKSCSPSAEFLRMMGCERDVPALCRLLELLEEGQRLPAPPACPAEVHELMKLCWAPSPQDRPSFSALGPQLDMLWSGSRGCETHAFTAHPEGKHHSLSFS
Put plainly: JAK3 inhibition assay (ELISA, Poly (Glu, Ala, Tyr) coated plates). The settings on record: 2 μM ATP. The protocol:
Compound inhibition of JAK was assayed by the method described by G. R. Brown, et al, Bioorg. Med. Chem. Lett. 2000, vol. 10, pp 575-579 in the following manner. Into Maxisorb plates, previously coated at 4° C. with Poly (Glu, Ala, Tyr) 6:3:1 then washed with phosphate buffered saline 0.05% and Tween-(PBST), was added 2 μM ATP, 5 mM MgCl2, and a solution of compound in DMSO. The reaction was started with JAK enzyme and the plates incubated for 60 minutes at 30° C. The plates were then washed with PBST, 100 μL HRP-Conjugated 4G10 antibody was added, and the plate incubated for 90 minutes at 30° C. The plate was again washed with PBST, 100 μL TMB solution is added, and the plates were incubated for another 30 minutes at 30° C. Sulfuric acid (100 μL of 1M) was added to stop the reaction and the plate is read at 450 nm to obtain the optical densities for analysis to determine Ki values.
On the technique in general: ELISA stands for enzyme-linked immunosorbent assay.

Another experiment has as its target T2, CDK-2/Cyclin A (Homo sapiens, UniProt P24941).
T2 construct: 25 nM CDK-2/Cyclin A
Put plainly: Inhibition of CDK-2, coupled enzyme assay. To be noted: 100 μM ATP, 30° C. As for the experimental part:
Compounds are screened for their ability to inhibit CDK-2/Cyclin A using a standard coupled enzyme assay [Fox et al. Protein Sci. 1998, 7, 2249]. Reactions were carried out in 100 mM HEPES (pH 7.5), 10 mM MgCl2, 25 mM NaCl, 1 mM DTT and 1.5% DMSO. Final substrate concentrations in the assay are 100 μM ATP (Sigma chemicals) and 100 μM peptide (American Peptide, Sunnyvale, Calif.). Assays are carried out at 30° C. and 25 nM CDK-2/Cyclin A. Final concentrations of the components of the coupled enzyme system are 2.5 mM phosphoenolpyruvate, 350 μM NADH, 30 μg/ml pyruvate kinase and 10 μg/ml lactate dehydrogenase.
An assay stock buffer solution is prepared containing all of the reagents listed above, with the exception of CDK-2/Cyclin A, DTT and the test compound of interest. 56 μl of the test reaction is placed in a 384 well plate followed by addition of 1 μl of 2 mM DMSO stock containing the test compound (final compound concentration 30 μM). The plate is preincubated for ˜10 minutes at 30° C. and the reaction initiated by addition of 10 μl of enzyme (final concentration 25 nM). Rates of reaction are obtained using a BioRad Ultramark plate reader (Hercules, Calif.) over a 5 minute read time at 30° C. Ki values are determined according to standard methods.

Chain of GSK-3β (AA 1-420) (P49841 whole entry, the tested form may be a part): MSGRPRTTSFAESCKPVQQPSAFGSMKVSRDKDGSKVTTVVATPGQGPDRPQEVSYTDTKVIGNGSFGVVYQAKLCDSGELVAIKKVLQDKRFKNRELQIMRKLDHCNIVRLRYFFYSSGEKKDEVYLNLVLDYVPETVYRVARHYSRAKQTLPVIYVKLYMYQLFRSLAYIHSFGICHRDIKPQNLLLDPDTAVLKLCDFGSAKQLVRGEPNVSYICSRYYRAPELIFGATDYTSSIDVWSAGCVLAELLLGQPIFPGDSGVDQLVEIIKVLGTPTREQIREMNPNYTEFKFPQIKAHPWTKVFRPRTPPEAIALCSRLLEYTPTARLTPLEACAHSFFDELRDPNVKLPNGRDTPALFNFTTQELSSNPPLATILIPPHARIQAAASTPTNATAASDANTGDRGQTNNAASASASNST

For `CC(=O)N1[C@H](C)CN(c2cc(-n3cnc(Nc4ccc(NC(=O)NC(C)C)cc4)n3)ccn2)C[C@@H]1C` [Compound I-100], the inhibitory constant (Ki) at GSK-3β (AA 1-420) is greater than 1000 nM; at JAK-3, less than 10 nM; on CDK-2/Cyclin A, less than 500 nM.
For `N#CCC(=O)N1CCCN(c2cc(-n3cnc(Nc4ccccc4)n3)ccn2)CC1` [Compound I-72] the same measures were greater than 1000 nM, 10 to 1000 nM and less than 500 nM.
On the same counts, the results for `COc1cc(Nc2ncn(-c3ccc(C#N)cc3)n2)cc(OC)c1OC` [Compound I-43] are 500 to 1000 nM, 10 to 1000 nM and 500 to 1000 nM.
For `O=C(Nc1cc(-n2cnc(Nc3ccccc3)n2)ccn1)C1CCCCC1` [Compound I-93] the same measures were less than 500 nM, greater than 1000 nM and 500 to 1000 nM.
As for `c1ccc(Nc2ncn(-c3ccnc(NC4CCCCC4)c3)n2)cc1` [Compound I-50], the inhibition constant (Ki) is 500 to 1000 nM on GSK-3β (AA 1-420), 10 to 1000 nM on JAK-3 and less than 500 nM at CDK-2/Cyclin A.
On the same counts, the results for `CCOc1cccc(Nc2ncn(-c3ccccc3)n2)c1` [Compound I-45] are greater than 1000 nM, greater than 1000 nM and greater than 1000 nM.
On the same counts, the results for `COC(=O)Nc1ccc(Nc2ncn(-c3ccnc(N4C[C@@H](C)N(C(C)=O)[C@@H](C)C4)c3)n2)cc1` [Compound I-78] are greater than 1000 nM, 10 to 1000 nM and less than 500 nM.
On the same counts, the results for `OC[C@H]1CCCN(c2cc(-n3cnc(Nc4ccccc4)n3)ccn2)C1` [Compound I-65] are 500 to 1000 nM, 10 to 1000 nM and less than 500 nM.
As to `O=C(CC1CCCC1)Nc1cc(-n2cnc(Nc3ccccc3)n2)ccn1` [Compound I-94, 2-Cyclopentyl-N-[4-(3-phenylamino-[1,2,4]triazol-1-yl)-pyridin-2-yl]-acetamide], the Ki at GSK-3β (AA 1-420) was less than 500 nM; at JAK-3, 10 to 1000 nM; at CDK-2/Cyclin A, greater than 1000 nM.
Turning to `O=c1[nH]c2ccccc2n1C1CCN(c2cc(-n3cnc(Nc4ccccc4)n3)ccn2)CC1` [Compound I-63], the inhibition constant (Ki) on GSK-3β (AA 1-420), on JAK-3 and on CDK-2/Cyclin A was greater than 1000 nM each time.
Regarding `CC(C)C(=O)N1CCCN(c2cc(-n3cnc(Nc4ccccc4)n3)ccn2)CC1` [Compound I-69], the inhibition constant Ki on GSK-3β (AA 1-420), at JAK-3 and on CDK-2/Cyclin A was greater than 1000 nM each time.
With `CC(=O)N1[C@H](C)CN(c2cc(-n3cnc(Nc4ccc(N5CCN(C(=O)OC(C)(C)C)CC5)cc4)n3)ccn2)C[C@@H]1C` [Compound I-97, 4-(4-{1-[2-(4-Acetyl-3,5-dimethyl-piperazin-1-yl)-pyridin-4-yl]-1H-[1,2,4]triazol-3-ylamino}-phenyl)-piperazine-1-carboxylic acid tert-butyl ester], the Ki at GSK-3β (AA 1-420) is greater than 1000 nM; at JAK-3 it was 10 to 1000 nM; at CDK-2/Cyclin A, less than 500 nM.
For `CC(C)CCN(C)c1cc(-n2cnc(Nc3ccccc3)n2)ccn1` [Compound I-62, methyl-(3-methyl-butyl)-[4-(3-phenylamino-[1,2,4]triazol-1-yl)-pyridin-2-yl]-amine], the inhibition constant (Ki) on GSK-3β (AA 1-420) was less than 500 nM; on JAK-3, 10 to 1000 nM; on CDK-2/Cyclin A, less than 500 nM.
Regarding `CC(=O)N1[C@H](C)CN(c2cc(-n3cnc(Nc4ccc(NC(=O)OCC(C)C)cc4)n3)ccn2)C[C@@H]1C` [Compound I-90], the Ki on GSK-3β (AA 1-420) is greater than 1000 nM; on JAK-3, 10 to 1000 nM; on CDK-2/Cyclin A it was 500 to 1000 nM.
In the case of `CCOc1ccc(Nc2ncn(-c3ccccc3)n2)cc1` [Compound I-47], the inhibitory constant (Ki) on GSK-3β (AA 1-420), at JAK-3 and at CDK-2/Cyclin A was greater than 1000 nM in each case.
Turning to `c1ccc(-n2cnc(Nc3ccnc(NCCN4CCOCC4)c3)n2)cc1` [Compound I-107], the inhibitory constant (Ki) on GSK-3β (AA 1-420), on JAK-3 and at CDK-2/Cyclin A was greater than 1000 nM in each case.
Consider `CC(=O)N1[C@H](C)CN(c2cc(-n3cnc(Nc4ccc(NC(=O)N(C)C)cc4)n3)ccn2)C[C@@H]1C` [Compound I-77, 3-(4-{1-[2-(4-Acetyl-3,5-dimethyl-piperazin-1-yl)-pyridin-4-yl]-1H-[1,2,4]triazol-3-ylamino}-phenyl)-1,1-dimethyl-urea], for which the inhibitory constant (Ki) on GSK-3β (AA 1-420) was greater than 1000 nM; on JAK-3 it was 10 to 1000 nM; at CDK-2/Cyclin A, greater than 1000 nM.
As to `c1ccc(Nc2ncn(-c3ccnc(N4CCCCCC4)c3)n2)cc1` [Compound I-73], the results for the inhibition constant Ki on GSK-3β (AA 1-420), on JAK-3 and on CDK-2/Cyclin A were 500 to 1000 nM, less than 10 nM and less than 500 nM, respectively.
For `CC(=O)N1[C@H](C)CN(c2cc(-n3cnc(Nc4ccc(NC(=O)c5ccco5)cc4)n3)ccn2)C[C@@H]1C` [Compound I-81, Furan-2-carboxylic acid (4-{1-[2-(4-acetyl-3,5-dimethyl-piperazin-1-yl)-pyridin-4-yl]-1H-[1,2,4]triazol-3-ylamino}-phenyl)-amide] the same measures were greater than 1000 nM, 10 to 1000 nM and 500 to 1000 nM.
On the same counts, the results for `CC(=O)N1[C@H](C)CN(c2cc(-n3cnc(Nc4ccc(NC(=O)C(F)(F)F)cc4)n3)ccn2)C[C@@H]1C` [Compound I-79] are greater than 1000 nM, less than 10 nM and less than 500 nM.
For `CN(CCO)c1cc(-n2cnc(Nc3ccccc3)n2)ccn1` [Compound I-51] the same measures were less than 500 nM, 10 to 1000 nM and less than 500 nM.
`c1ccc(-n2cnc(Nc3ccc(N4CCOCC4)nc3)n2)cc1` [Compound I-134]: the inhibition constant Ki on GSK-3β (AA 1-420), at JAK-3 and at CDK-2/Cyclin A was greater than 1000 nM in each case.
